The results in this text go back to ChEMBL document CHEMBL4043168, “The design and SAR of a novel series of 2-aminopyridine based LRRK2 inhibitors” (Bioorg Med Chem Lett, 2017).

The assay concerns the target Tyrosine-protein kinase JAK2 (Homo sapiens) (UniProt O60674). As to the kind of experiment: Inhibition of JAK2 domain2 activation Loop (IGDFGLTKVLPQDKEYYK) in human PBMC at 1 uM.

Chain of Tyrosine-protein kinase JAK2 (Homo sapiens) (O60674 whole entry, the tested form may be a part): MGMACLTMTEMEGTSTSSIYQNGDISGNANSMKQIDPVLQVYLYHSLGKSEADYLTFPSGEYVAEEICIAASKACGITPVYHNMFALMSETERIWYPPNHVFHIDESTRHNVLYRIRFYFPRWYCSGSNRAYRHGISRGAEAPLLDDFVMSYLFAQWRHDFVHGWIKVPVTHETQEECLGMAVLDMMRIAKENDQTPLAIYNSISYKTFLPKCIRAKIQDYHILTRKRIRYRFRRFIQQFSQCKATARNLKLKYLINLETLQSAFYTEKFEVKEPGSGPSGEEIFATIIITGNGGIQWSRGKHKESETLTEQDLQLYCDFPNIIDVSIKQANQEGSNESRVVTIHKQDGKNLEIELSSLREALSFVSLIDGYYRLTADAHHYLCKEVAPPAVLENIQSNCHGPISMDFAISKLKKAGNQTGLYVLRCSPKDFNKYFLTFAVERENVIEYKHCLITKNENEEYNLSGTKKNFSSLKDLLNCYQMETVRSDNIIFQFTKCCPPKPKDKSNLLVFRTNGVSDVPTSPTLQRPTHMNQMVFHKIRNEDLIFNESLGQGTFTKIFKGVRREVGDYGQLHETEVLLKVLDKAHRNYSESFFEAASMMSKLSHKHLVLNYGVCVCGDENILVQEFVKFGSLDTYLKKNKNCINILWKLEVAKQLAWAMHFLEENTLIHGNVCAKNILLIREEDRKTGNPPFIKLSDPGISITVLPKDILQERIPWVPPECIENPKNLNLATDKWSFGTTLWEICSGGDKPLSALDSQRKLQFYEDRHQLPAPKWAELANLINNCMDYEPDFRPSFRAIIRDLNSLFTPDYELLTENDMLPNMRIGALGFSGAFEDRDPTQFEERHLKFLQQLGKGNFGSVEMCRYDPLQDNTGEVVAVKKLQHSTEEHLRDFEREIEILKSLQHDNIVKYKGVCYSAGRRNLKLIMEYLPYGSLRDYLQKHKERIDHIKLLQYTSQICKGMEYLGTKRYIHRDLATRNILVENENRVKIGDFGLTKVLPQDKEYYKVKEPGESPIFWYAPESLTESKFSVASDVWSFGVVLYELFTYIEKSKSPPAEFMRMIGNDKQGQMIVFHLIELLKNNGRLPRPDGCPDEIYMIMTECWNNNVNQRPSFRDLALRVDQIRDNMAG

By inhibition is commonly meant how much of the control response was suppressed. Read a low inhibition as little suppression. For the compound `CC(C)n1cc(-c2cc(-c3ccc(CN4CCOCC4)cc3)cnc2N)nn1`, the inhibition came to 5.2%.
